Measured values reported in patent publication US9216173B2, “2-Pyridyl carboxamide-containing spleen tyrosine kinase (SYK) inhibitors” (Merck Sharp & Dohme Corp., priority 2011, dated 2015).

These compounds were tested against T1, recombinant human GST-SYK (Homo sapiens, UniProt P43405) (assay: Homogeneous Time-Resolved Fluorescence (HTRF) assay for the recombinant human Syk enzyme). Settings: GST-hSYK 5 pM, ATP 25 μM, 10-dose titration 10 μM to 0.508 nM; read-out: IC50.
T1 construct: purchased Carna Biosciences 08-176
Format: biochemical
Procedure: Homogeneous Time-Resolved Fluorescence (HTRF) Assay for the Recombinant Human Syk Enzyme
A recombinant GST-hSYK fusion protein was used to measure potency of compounds to inhibit human Syk activity. […] Final volume of the reaction was 10 μL. Phosphorylation of the peptide was allowed to proceed for 45 minutes at room temperature. To quench the reaction and detect the phosphorylated product, 2 nM of a Europium-anti-phosphotyrosine antibody (Perkin Elmer #AD0161) and 70 nM SA-APC (Perkin-Elmer #CR130-100) were added together in 15 mM Tris pH 7.5, 40 mM EDTA, 0.01% tween 20. Final volume of the quenching solution was 10 μL. The resulting HTRF signal was measured after 30 minutes on an EnVision (Perkin-Elmer) reader using a time-resolved fluorescence protocol.
With `Cn1ccc(Nc2cc(N[C@@H]3CS(=O)(=O)CC[C@@H]3N)cnc2C(N)=O)n1` (relative stereo) [Example 1.89, rel-5-{[(3S,4S)-4-amino-1,1-dioxidotetrahydro-2H-thiopyran-3-yl]amino}-3-[(1-methyl-1H-pyrazol-3-yl)amino]pyridine-2-carboxamide] the IC50 was 340 nM.
Work on `Cc1cc(C)nc(Nc2cc(N[C@H]3CC[C@@H]3N)cnc2C(N)=O)c1` (relative stereo) [Example 1.116, rel-5-{[(1S,2S)-2-aminocyclobutyl]amino}-3-[(4,6-dimethylpyridin-2-yl)amino]pyridine-2-carboxamide] yielded an IC50 of 55 nM.
Work on `Cc1cc(C)nc(Nc2cc(N[C@@H]3C[C@H]3N)cnc2C(N)=O)c1` (relative stereo) [Example 2.13, rel-5-{[(1R,2R)-2-aminocyclopropyl]amino}-3-[(4,6-dimethylpyridin-2-yl)amino]pyridine-2-carboxamide] yielded an IC50 of 770 nM.
Compound `Cc1ccc(Nc2cc(N[C@@H]3CCCC[C@@H]3N)cnc2C(N)=O)nc1C` [Example 1.6, 5-{[(1R,2S)-2-aminocyclohexyl]amino}-3-[(5,6-dimethylpyridin-2-yl)amino)pyridine-2-carboxamide] has an IC50 of 0.53 nM.

Same assay, conditions: GST-hSYK 5 pM, ATP 25 μM, 10-dose titration 10 μM to 0.508 nM; read-out: rhSYK Activity (IC50 rating)
`Cc1cc(C)nc(Nc2cc(N[C@@H]3CCC[C@@H]3N)cnc2C(N)=O)c1` (relative stereo) [Example 1.18, rel-5-{[(1R,2S)-2-aminocyclopentyl]amino}-3-[(4,6-dimethylpyridin-2-yl)amino]pyridine-2-carboxamide] showed an IC50 of less than 10 nM.
With `Cn1ccc(Nc2cc(N[C@@H]3CS(=O)(=O)CC[C@@H]3N)cnc2C(N)=O)n1` (relative stereo) [Example 1.89, rel-5-{[(3S,4S)-4-amino-1,1-dioxidotetrahydro-2H-thiopyran-3-yl]amino}-3-[(1-methyl-1H-pyrazol-3-yl)amino]pyridine-2-carboxamide] the IC50 was 100 to 1000 nM.
Compound `NC(=O)c1ncc(N[C@@H]2CS(=O)(=O)CC[C@@H]2N)cc1Nc1ccn(-c2ccc(F)cc2)n1` (relative stereo) [Example 1.90, rel-5-{[(3S,4S)-4-amino-1,1-dioxidotetrahydro-2H-thiopyran-3-yl]amino}-3-{[1-(4 fluorophenyl)-1H-pyrazol-3-yl]amino}pyridine-2-carboxamide] has an IC50 of less than 10 nM.
`CCc1cccc(Nc2cc(N[C@@H]3CS(=O)(=O)CC[C@@H]3N)cnc2C(N)=O)n1` (relative stereo) [Example 1.91, rel-5-{[(3S,4S)-4-amino-1,1-dioxidotetrahydro-2H-thiopyran-3-yl]amino}-3-[(6-ethylpyridin-2-yl)amino]pyridine-2 carboxamide] was tested, and the IC50 was less than 10 nM.
Compound `Cc1cc(C)nc(Nc2cc(N[C@H]3CC[C@@H]3N)cnc2C(N)=O)c1` (relative stereo) [Example 1.116, rel-5-{[(1S,2S)-2-aminocyclobutyl]amino}-3-[(4,6-dimethylpyridin-2-yl)amino]pyridine-2-carboxamide] has an IC50 of 10 to 100 nM.
With `Cc1cc(C)nc(Nc2cc(N[C@H]3CS(=O)(=O)C[C@@H]3N)cnc2C(N)=O)c1` (relative stereo) [Example 2.6, rel-5-{[(3R,4R)-4-amino-1,1-dioxidotetrahydrothiophen-3-yl]amino}-3-[(4,6-dimethylpyridin-2-yl)amino]pyridine-2-carboxamide] the IC50 was 100 to 1000 nM.
`Cc1cc(C)nc(Nc2cc(N[C@@H]3C[C@H]3N)cnc2C(N)=O)c1` (relative stereo) [Example 2.13, rel-5-{[(1R,2R)-2-aminocyclopropyl]amino}-3-[(4,6-dimethylpyridin-2-yl)amino]pyridine-2-carboxamide] showed an IC50 of 100 to 1000 nM.
Work on `Cc1cc(C)nc(Nc2cc(N[C@H]3CCC[C@H]3N)cnc2C(N)=O)c1` (single isomer, unassigned) [Example 1.25] yielded an IC50 of 10 to 100 nM.
`Cc1cc(C)nc(Nc2cc(N[C@H]3CCC[C@H]3N)cnc2C(N)=O)c1` (single isomer, unassigned) [Example 1.26] was tested, and the IC50 was less than 10 nM.
Compound `Cc1cc(C)nc(Nc2cc(NC[C@H](C)N)cnc2C(N)=O)c1` [Example 1.3, 5-{[(2S)-2-aminopropyl]amino}-3-[(4,6-dimethylpyridin-2-yl)amino]pyridine-2-carboxamide] has an IC50 of less than 10 nM.
`Cc1cccc(Nc2cc(NCCN)cnc2C(N)=O)n1` [Example 1.4, 5-[(2-aminoethyl)amino]-3-[(6-methylpyridin-2-yl)amino]pyridine-2-carboxamide] was tested, and the IC50 was 10 to 100 nM.
In the case of `Cc1cc(C)nc(Nc2cc(NCCN)cnc2C(N)=O)c1` [Example 1.5, 5-[(2-aminoethyl)amino]-3-[(4,6-dimethylpyridin-2-yl)amino]pyridine-2-carboxamide], the IC50 is reported as less than 10 nM.
Work on `Cc1ccc(Nc2cc(N[C@@H]3CCCC[C@@H]3N)cnc2C(N)=O)nc1C` [Example 1.6, 5-{[(1R,2S)-2-aminocyclohexyl]amino}-3-[(5,6-dimethylpyridin-2-yl)amino)pyridine-2-carboxamide] yielded an IC50 of less than 10 nM.
`Cc1cccc(Nc2cc(N[C@@H]3CCCC[C@@H]3N)cnc2C(N)=O)n1` [Example 1.7, 5-{[(1R,2S)-2-aminocyclohexyl]amino}-3-[(6-methylpyridin-2-yl)amino]pyridine-2-carboxamide] was tested, and the IC50 was less than 10 nM.
`NC(=O)c1ncc(N[C@@H]2CCCC[C@@H]2N)cc1Nc1ccc2ccccc2n1` [Example 1.9, 5-{[(1R,2S)-2-aminocyclohexyl]amino}-3-(quinolin-2-ylamino)pyridine-2-carboxamide] showed an IC50 of less than 10 nM.
`Cc1nc(Nc2cc(NC[C@H](C)N)cnc2C(N)=O)ccc1-c1cn(C)cn1` [Example 1.10, 5-{[(2S)-2-aminopropyl]amino}-3-{[6-methyl-5-(1-methyl-1H-imidazol-4-yl)pyridin-2-yl]amino}pyridine-2-carboxamide] showed an IC50 of less than 10 nM.
Work on `Cc1nc(Nc2cc(N[C@@H]3CCCC[C@@H]3N)cnc2C(N)=O)ccc1-c1cnn(C)c1` [Example 1.11, 5-{[(1R,2S)-2-aminocyclohexyl]amino}-3-{[6-methyl-5-(1-methyl-1H-pyrazol-4-yl)pyridin-2-yl]amino}pyridine-2-carboxamide] yielded an IC50 of less than 10 nM.
For `Cc1cc(Cl)cc(Nc2cc(N[C@@H]3CCCC[C@@H]3N)cnc2C(N)=O)n1` [Example 1.12, 5-{[(1R,2S)-2-aminocyclohexyl]amino}-3-[(4-chloro-6-methylpyridin-2-yl)amino]pyridine-2-carboxamide], the IC50 was less than 10 nM.
For `COc1cccc(Nc2cc(N[C@@H]3CCCC[C@@H]3N)cnc2C(N)=O)n1` [Example 1.13, 5-{[(1R,2S)-2-aminocyclohexyl]amino}-3-[(6-methoxypyridin-2-yl)amino]pyridine-2-carboxamide], the IC50 was less than 10 nM.
Work on `NC(=O)c1ncc(N[C@@H]2CCCC[C@@H]2N)cc1Nc1ccn(-c2ccccc2)n1` [Example 1.14, 5-{[(1R,2S)-2-aminocyclohexyl]amino}-3-[(1-phenyl-1H-pyrazol-3-yl)amino]pyridine-2-carboxamide] yielded an IC50 of less than 10 nM.
`NC(=O)c1ncc(N[C@@H]2CCCC[C@@H]2N)cc1Nc1cccc(-c2ccc3c(c2)CCO3)n1` [Example 1.15, 5-{[(1R,2S)-2-aminocyclohexyl]amino}-3-{[6-(2,3-dihydro-1-benzofuran-5-yl)pyridin-2-yl]amino}pyridine-2-carboxamide] showed an IC50 of less than 10 nM.
`NC(=O)c1ncc(N[C@@H]2CCCC[C@@H]2N)cc1Nc1cccc(-c2ccc3c(c2)OCCO3)n1` [Example 1.16, 5-{[(1R,2S)-2-aminocyclohexyl]amino}-3-{[6-(2,3-dihydro-1,4-benzodioxin-6-yl)pyridin-2-yl]amino}pyridine-2-carboxamide] was tested, and the IC50 was less than 10 nM.
Work on `NC(=O)c1ncc(N[C@@H]2CCCC[C@@H]2N)cc1Nc1ccc2nccn2n1` [Example 1.17, 5-{[(1R,2S)-2-aminocyclohexyl]amino}-3-(imidazo[1,2-b]pyridazin-6-ylamino)pyridine-2-carboxamide] yielded an IC50 of less than 10 nM.
With `Cc1cc(C)nc(Nc2cc(NC(C)(C)CN)cnc2C(N)=O)c1` [Example 1.19, 5-[(2-amino-1,1-dimethylethyl)amino]-3-[(4,6-dimethylpyridin-2-yl)amino]pyridine-2-carboxamide] the IC50 was 10 to 100 nM.
With `Cc1cc(C)nc(Nc2cc(NC(CN)c3ccccc3)cnc2C(N)=O)c1` (centres unmarked) [Example 1.21, 5-[(2-amino-1-phenylethyl)amino]-3-[(4,6-dimethylpyridin-2-yl)amino]pyridine-2-carboxamide] the IC50 was less than 10 nM.
With `Cc1cc(C)nc(Nc2cc(NC(CN)c3ccccc3)cnc2C(N)=O)c1` (centres unmarked) [Example 1.22, 5-[(2-amino-1-phenylethyl)amino]-3-[(4,6-dimethylpyridin-2-yl)amino]pyridine-2-carboxamide] the IC50 was less than 10 nM.
`Cc1cc(C)nc(Nc2cc(NC(CN)c3ccccc3)cnc2C(N)=O)c1` (centres unmarked) [Example 1.23, 5-[(2-amino-1-phenylethyl)amino]-3-[(4,6-dimethylpyridin-2-yl)amino]pyridine-2-carboxamide] showed an IC50 of 10 to 100 nM.
Work on `Cc1nc(Nc2cc(N[C@@H]3CCCC[C@@H]3N)cnc2C(N)=O)ccc1F` [Example 1.24, 5-{[(1R,2S)-2-aminocyclohexyl]amino}-3-[(5-fluoro-6-methylpyridin-2-yl)amino]pyridine-2-carboxamide] yielded an IC50 of less than 10 nM.
`NC(=O)c1ncc(N[C@@H]2CCCC[C@@H]2N)cc1Nc1cccc(-c2ccncc2)n1` [Example 1.27, 5-{[(1R,2S)-2-aminocyclohexyl]amino}-3-(2,4′-bipyridin-6-ylamino)pyridine-2-carboxamide] showed an IC50 of less than 10 nM.
`NC(=O)c1ncc(N[C@@H]2CCCC[C@@H]2N)cc1Nc1cccc(-c2ccccc2)n1` [Example 1.28, 5-{[(1R,2S)-2-aminocyclohexyl]amino}-3-[(6-phenylpyridin-2-yl)amino]pyridine-2-carboxamide] gave an IC50 of less than 10 nM.
In the case of `Cc1cc(C)nc(Nc2cc(NCC3(N)CCS(=O)(=O)CC3)cnc2C(N)=O)c1` [Example 1.29, 5-{[(4-amino-1,1-dioxidotetrahydro-2H-thiopyran-4-yl)methyl]amino}-3-[(4,6-dimethylpyridin-2-yl)amino]pyridine-2-carboxamide], the IC50 is reported as 10 to 100 nM.
With `Cc1cc(C)nc(Nc2cc(NC(C)CN)cnc2C(N)=O)c1` (centres unmarked) [Example 1.30, 5-[(2-amino-1-methylethyl)amino]-3-[(4,6-dimethylpyridin-2-yl)amino]pyridine-2-carboxamide] the IC50 was less than 10 nM.
With `Cc1nc(Nc2cc(N[C@@H]3CCCC[C@@H]3N)cnc2C(N)=O)ccc1Br` [Example 1.31, 5-{[(1R,2S)-2-aminocyclohexyl]amino}-3-[(5-bromo-6-methylpyridin-2-yl)amino]pyridine-2-carboxamide] the IC50 was less than 10 nM.
`Cn1ccc(Nc2cc(N[C@@H]3CCCC[C@@H]3N)cnc2C(N)=O)n1` [Example 1.33, 5-{[(1R,2S)-2-aminocyclohexyl]amino}-3-[(1-methyl-1H-pyrazol-3-yl)amino]pyridine-2-carboxamide] was tested, and the IC50 was 10 to 100 nM.
